Assay results reported in patent US20210130789A1, “METHODS OF STROMAL CELL EXPANSION, USES AND MATERIALS RELATED THERETO” (CITY OF HOPE, priority 2019, published 2021).

Legend:
[1] = tested on: IPTD-MSCs and islet cells; assay: TSG6 and VEGF expression in cells cultured under normoxic condition; type: cell-based, human; settings: normoxic condition (5% CO2, 21% O2)
Description: (§1) Furthermore, DMOG protected the human islets and MSC from hypoxia by inhibiting Hypoxia-inducible Factor Prolyl Hydroxylase (HIF-Phase) resulted into augmentation of certain transcription factor(s) associated that could be highly beneficial for the islet and cell survival and function. Islets in particular are oxygen sensitive and when oxygen demand exceeds the supply, the HIF pathway is triggered to adapt for hypoxic conditions as a result of inactivation of HIF-Phase, an enzyme that contributes to degradation of HIF-1α. Thus, inhibiting HIF-Phase enzyme activity leads to increased HIF-1α protein in cells. Up-regulation of HIF-1α at transcriptional and translational levels leads to production of erythropoietin (EPO) and other proteins, including glycolytic enzyme, glucose transporter-1 (Glut-1) and vascular endothelial growth factor (VEGF). These factors are important to protect islets from cytokine induced cell death and also potentiate islet function, survival, and proliferation.

IPTD-MSCs [2] = assay: Quantitative real-time PCR of IPTD-MSCs treated in vitro with TNF-α and DMOG; type: cell-based, human; settings: 24 hours; TNF-α 10 ng/ml and/or DMOG 1 mM; compared to control
Method: Recombinant human TNF-α protein (R&D Systems, Minneapolis, Minn.) was reconstituted in research-grade water (Hospira, Lake Forest, Ill.) to a concentration of 100 ng/mL, aliquoted and stored at −20° C. Dimethyloxallyl glycine (DMOG; Cayman Chemicals, Ann Arbor, Mich.) was dissolved in water to yield a stock solution of 57.1 mM, aliquoted (100 μL) and stored at −80° C. IPTD-MSCs were incubated in T-25 flasks in 5 ml of CMRL-1066 medium supplemented with 5% hPL until ˜50% confluent. Cells were cultured for 24 hours in CMRL 1066 medium, or medium containing 10 ng/ml TNF-α, 1 mM DMOG or 1 mM DMOG and 10 ng/ml TNF-α. Following treatment, cells were collected in 1.7-ml Eppendorf tubes and stored in RLT buffer (Qiagen, Germantown, Md.) at −80° C. for future preparation of cDNA.
The TaqMan Gene Expression Assay system (ThermoFisher Scientific) was used to quantify β-ACTIN, TSG-6, NRF2, and VEGF mRNA levels. Total RNA was extracted using a Qiagen Mini Kit (Cat. No. 51306) and converted into cDNA. Real-time quantitative PCR was run in duplicate on a ViiA™ 7 Real-Time PCR System with a 384-well block (ThermoFisher Scientific). Thermal cycles were programmed for 20 seconds at 95° C. for the initial denaturation, followed by 45 cycles of […] at 95° C. for denaturation, 30 seconds at 60° C. for annealing, 60 seconds at 72° C. for extension, and a final extension at 72° C. for 10 minutes. All PCR runs were performed with negative (water) and positive controls. β-ACTIN was used as an internal control to quantify relative gene expression.

IPTD-MSCs [3] = assay: Cytokine assay (Luminex) of supernatants from treated IPTD-MSCs; type: cell-based, human
Method: Supernatants from cells cultured for 24 hours under various conditions (medium alone, or medium plus DMOG, TNF-α, or DMOG+TNF-α) were collected, and cytokine analysis performed using a Luminex assay kit (Bio-Rad, Hercules, Calif.) according to the manufacturer's protocol. The following growth factors/cytokines were measured: VEGF, IL-6, IL-8, MMP-9, MCP-1, MMP-2, IL-4, IL-10 and […]. Sample were measured in duplicate.

[4] = tested on: Human umbilical vein endothelial cells (HUVECs); assay: In vitro angiogenesis assay: endothelial tube formation with IPTD-MSC conditioned media; type: cell-based; settings: 24 hours, media from treated IPTD-MSCs
Method: Angiogenic capacity was assessed by quantifying endothelial tube formation. Human umbilical vein endothelial cells (HUVECs) (Cell Applications Inc., San Diego, Calif.; Cat #200p-05n) between passages 2 to 6 were cultured in a standard medium. Cells (1×10^5 cells/well) were plated in 24-well plates (Fisher, Cat #930186) coated with Matrigel (Corning, Cat #356234), and incubated for 30 minutes to allow cell attachment. Supernatants (150 μL/well) from control and stimulated IPTD-MSCs (DMOG, TNF-α, or DMOG+TNF-α) were added to obtain a total volume of 300 μL per well. Plates were then incubated at 37° C., 5% CO2 for 24 hours. At 4 and 24 hours, the wells were visualized using a Leica microscope and representative photographic images were obtained. Total endothelial tube number and tube length were determined using ImageJ software (NIH, Bethesda, Md.).

human islets = assay: mRNA levels in human islets treated with DMOG; type: cell-based; settings: DMOG 1 mM
Method: (§2) Islets of high and low purity, and mesenchymal stem cells (MSCs) as a potential source of human islets, isolated from human donor pancreata were treated with the PHD inhibitor DMOG. Alterations in gene expression, cell proliferation, survival and metabolism were characterized.
(§3) As shown in FIGS. 10-12, pancreatic-derived human islets and MSCs were treated with DMOG or control at several concentrations and time intervals. The levels of HIF-1a were increased and PHD decreased in DMOG-treated versus control cells, and in a dose-dependent manner.

pancreatic ductal cells = assay: mRNA levels in pancreatic ductal cells treated with DMOG; type: cell-based, human; settings: DMOG 1 mM, one donor
Method: One donor was tested. The data are expressed as mean±SD.

[5] = tested on: pancreatic-derived human islets and MSCs; assay: HIF-1a, PHD and survival gene levels in DMOG-treated islets and MSCs; type: cell-based
Method: as §2, §3

[6] = tested on: pancreatic-derived human islets and MSCs; assay: Cytokine injury and proliferative capacity of DMOG-treated islets and MSCs in vitro; type: cell-based
Method: as §2, §3

diabetic mice = assay: Engraftment of DMOG-treated islets in diabetic mice; type: in vivo
human islets and MSC = assay: Protection of human islets and MSC from hypoxia; type: cell-based
Description: as §1

[7] = culture medium after 24 hours, compared to control
[8] = DMOG-treated versus control cells, dose-dependent

## COC(=O)CNC(=O)C(=O)OC [DMOG, dimethyloxalylglycine]
[1]; IPTD-MSCs and islet cells
  VEGF upregulated: 51 fold
[1]; IPTD-MSCs and islet cells for DMOG, MSC for TNF-α plus DMOG
  TSG6 upregulated: 31 fold
IPTD-MSCs [2]
  NRF2 expression: significantly increased
  VEGF expression: significantly increased
IPTD-MSCs [3]; conditioned media after 24 hours
  Levels of MCP-1: reduced
IPTD-MSCs [3]; [7]
  secretion of IL-4: enhanced the secretion
  secretion of IL-6: enhanced the secretion
  secretion of IL-8: enhanced the secretion
  secretion of VEGF: enhanced the secretion
[4]
  numbers of cell tubes: 21.0±2.0
  tube length: 28.6±9.9 mm
Human islets; human islets Fr 1, purity >70%
  mRNA levels of VEGF gene: increased mRNA levels
Human islets; human islets Fr 2, purity <50%
  mRNA levels of EPO gene: increased mRNA levels
  mRNA levels of INS gene: increased mRNA levels
  mRNA levels of PDX1 gene: increased mRNA levels
  mRNA levels of TSG-6 gene: increased mRNA levels
  mRNA levels of VEGF gene: increased mRNA levels
Pancreatic ductal cells
  mRNA levels of TSG-6 gene: increased mRNA levels
  mRNA levels of VEGF gene: increased mRNA levels
[5]; DMOG treatment of islets and MSCs
  key survival genes (EPO, glycolytic enzyme, Glut-1, VEGF): upregulation
[5]; [8]
  levels of HIF-1a: increased
  levels of PHD: decreased
[6]
  proliferative capacity: higher proliferative capacity
  susceptibility to cytokine injury: less susceptible
Diabetic mice
  engraftment: increased engraftment
  glucose homeostasis: improved glucose homeostasis
Human islets and MSC
  protection from hypoxia: protected

## TNF-α
IPTD-MSCs [2]
  TSG-6 gene expression levels: significantly increased
IPTD-MSCs [3]; culture medium after 24 hours, compared to controls
  effect on any of the cytokines examined: did not have an effect
[4]
  numbers of cell tubes: no effect
  tube length: no effect
